In ChEMBL document CHEMBL1149930, “3-Hydroxy-19-nor-17-pregna-1,3,5(10)-triene-21,17-carbolactone as inhibitor of 17-hydroxysteroid dehydrogenase type 2” (Bioorg Med Chem Lett, 1994):

Legend:
[1] = biological target: T1, 17-beta-hydroxysteroid dehydrogenase type 2 (Homo sapiens, UniProt P37059); assay: Inhibitory activity against human placenta 17-beta-hydroxysteroid dehydrogenase type 2 (17-beta-HSD type 2)
T1 sequence (P37059 whole entry): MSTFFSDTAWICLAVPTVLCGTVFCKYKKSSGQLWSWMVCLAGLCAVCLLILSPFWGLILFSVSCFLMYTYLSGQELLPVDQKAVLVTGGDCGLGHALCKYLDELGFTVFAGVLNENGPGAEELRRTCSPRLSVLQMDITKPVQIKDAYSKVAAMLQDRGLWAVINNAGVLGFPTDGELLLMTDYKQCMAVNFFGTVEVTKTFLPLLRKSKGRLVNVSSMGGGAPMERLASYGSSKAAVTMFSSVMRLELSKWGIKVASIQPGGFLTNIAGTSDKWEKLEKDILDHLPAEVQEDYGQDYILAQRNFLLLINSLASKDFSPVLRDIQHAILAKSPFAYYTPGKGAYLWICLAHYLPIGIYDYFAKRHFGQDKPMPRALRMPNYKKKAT

[2] = biological target: T1, 17-beta-hydroxysteroid dehydrogenase type 2; assay: Inhibitory constant against human placenta 17-beta-hydroxysteroid dehydrogenase type 2 (17-beta-HSD type 2)

Row | SMILES | IC50 [1] [µM] | Ki [2] [µM]
1 | C[C@]12CC[C@@H]3c4ccc(O)cc4CC[C@H]3[C@@H]1CC[C@@]21CCC(=O)O1 | 0.27 | 0.25
2 | C[C@]12CCC3C4=CCC(=O)C=C4CCC3C1CC[C@@]21CCC(=O)O1 (stereo partly drawn) | 1.41 | –
